Reference: ChEMBL document CHEMBL4610067, “Molecular Networking Reveals Serpentinine-Related Bisindole Alkaloids from Picralima nitida, a Previously Well-Investigated Species” (J Nat Prod, 2020)

How the values were obtained:
[1] = system: Plasmodium falciparum; test: Antimalarial activity against chloroquine-resistant Plasmodium falciparum FcB1/Columbia infected in human erythrocytes assessed as reduction in [3H]-hypoxanthine incorporation pretreated for 24 hrs followed by [3H]-hypoxanthine addition measured after 24 hrs by liquid scintillation counting method; assay type: functional, organism-based
[2] = system: MRC5; test: Growth inhibition of human MRC5 cells after 72 hrs by resazurin dye based spectrophotometric method assay; assay type: cell-based; conditions: MRC5, 72 h

Row | Compound | IC50 [1] | IC50 [2]
1 | C/C=C1/CN2CCc3c([nH]c4ccc(O)cc34)[C@@H]2C[C@@H]1CCO | 99 µM | > 50 µM
2 | COC(=O)CCc1c[n+]2c(c3[nH]c4ccccc4c13)C[C@@H]1C(C(=O)OC)=CO[C@@H](C)[C@@H]1C2 | 3 µM | 
3 | C/C=C1/C[n+]2cc(C[C@H](C(=O)OC)[C@H]3C[C@H]4c5[nH]c6ccccc6c5CCN4C/C3=C/C)c3c([nH]c4ccccc43)c2C[C@@H]1CCO | 9.5 µM | > 50 µM
4 | C/C=C1/CN2CCc3c([nH]c4ccccc34)[C@@H]2C[C@@H]1[C@H](Cc1c[n+]2c(c3[nH]c4ccccc4c13)C[C@@H]1C(C(=O)OC)=CO[C@@H](C)[C@@H]1C2)C(=O)O | 5.2 µM | > 50 µM
5 | C/C=C1/CN2CCc3c([nH]c4ccccc34)[C@@H]2C[C@@H]1[C@H](Cc1c[n+]2c(c3[nH]c4ccccc4c13)C[C@@H]1C(C(=O)OC)=CO[C@@H](C)[C@@H]1C2)C(=O)OC | 2.6 µM | > 50 µM
6 | C/C=C1/C[n+]2ccc3c([nH]c4ccccc43)c2C[C@@H]1CCO | 19.5 µM | > 50 µM
7 | C/C=C1/CN2CCc3c([nH]c4ccccc34)[C@@H]2C[C@@H]1[C@H](Cc1c[n+]2c(c3[nH]c4ccccc4c13)C[C@H](CCO)[C@@H](CC)C2)C(=O)OC | 8.7 µM | > 50 µM
